Test results from US10654834B2 (Venenum Biodesign, LLC, priority 2016, dated 2020).

Legend:
human TGR5 receptor = target: T1, human TGR5 receptor (Homo sapiens, UniProt Q8TDU6); assay: Human TGR5 cAMP production assay (hTGR5-CHO cells, DiscoveRx cAMP XS+ kit); format: cell-based; settings: luminescent cAMP assay, read-out: Human TGR5 Lum. cAMP Activity (EC50)
T1 construct: host or cells: CHO-K1 (hTGR5-CHO)
T1 sequence (Q8TDU6 1-330): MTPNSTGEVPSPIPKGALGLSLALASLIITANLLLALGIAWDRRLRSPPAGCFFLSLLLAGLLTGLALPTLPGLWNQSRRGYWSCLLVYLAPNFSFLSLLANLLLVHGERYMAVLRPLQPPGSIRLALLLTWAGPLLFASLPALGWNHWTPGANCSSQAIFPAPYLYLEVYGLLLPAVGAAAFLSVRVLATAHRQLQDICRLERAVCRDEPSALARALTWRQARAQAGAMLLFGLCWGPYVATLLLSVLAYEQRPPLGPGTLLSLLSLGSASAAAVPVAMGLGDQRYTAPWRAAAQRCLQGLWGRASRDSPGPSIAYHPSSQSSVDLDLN
Method in brief: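 CHO-K1 cells stably expressing hTGR5, in PBS with IBMX and cAMP antibody, treated with half-log compound dilutions for 1 h at room temperature. cAMP measured by enzyme-fragment complementation luminescence after overnight detection; EC50 values reported.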

mouse TGR5 receptor = target: T2, mouse TGR5 receptor (Mus musculus, UniProt Q80SS6); assay: Mouse TGR5 HTRF cAMP production assay (HEK293-EBNA cells, Cisbio cAMP HiRange kit); format: cell-based; settings: HEK293-EBNA cells overexpressing mouse TGR5, HTRF cAMP assay
T2 construct: host or cells: HEK293-EBNA (293 c18, ATCC CRL10852)
T2 sequence (Q80SS6 1-329): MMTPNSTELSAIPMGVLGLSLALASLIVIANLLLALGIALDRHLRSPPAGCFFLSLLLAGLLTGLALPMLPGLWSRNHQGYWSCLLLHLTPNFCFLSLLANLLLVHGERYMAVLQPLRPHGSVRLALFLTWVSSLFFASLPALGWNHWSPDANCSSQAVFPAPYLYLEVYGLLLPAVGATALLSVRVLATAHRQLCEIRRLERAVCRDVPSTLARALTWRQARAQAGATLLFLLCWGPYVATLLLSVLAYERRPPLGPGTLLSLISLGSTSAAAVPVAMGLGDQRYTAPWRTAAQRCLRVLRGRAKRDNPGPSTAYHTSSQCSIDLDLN
Method in brief: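 HEK293-EBNA cells stably expressing mouse TGR5 (episomal vector) were suspended in serum-free DMEM with 500 μM IBMX and exposed to 12-point half-log compound dilutions for 1 h at room temperature. cAMP was detected by HTRF (d2-cAMP/anti-cAMP cryptate, 1 h, room temperature), giving EC50 from duplicates.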

EC50 (human TGR5 receptor) [nM] | EC50 (mouse TGR5 receptor) [nM] | Compound
100 to 999 | < 100 | O=C(O)CCNC(=O)N1CCN(c2cc(N3CCC[C@@H](C(=O)NCCc4ccc(C(F)(F)F)cc4)C3)nc(C(F)(F)F)n2)CC1 [Compound 344, (R)-3-(4-(2-(trifluoromethyl)-6-(3-((4-(trifluoromethyl)phenethyl)carbamoyl)-piperidin-1-yl)pyrimidin-4-yl)piperazine-1-carboxamido)propanoic acid]
< 100 | < 100 | O=C(CCCC1CCN(c2cc(N3CCC[C@H]3C(=O)NCCc3ccc(-c4ccncc4)cc3)nc(C(F)(F)F)n2)CC1)NCS(=O)(=O)O [Compound 353, (S)-(4-(1-(6-(2-((4-(pyridin-4-yl)phenethyl)carbamoyl)pyrrolidin-1-yl)-2-(trifluoromethyl)pyrimidin-4-yl)piperidin-4-yl)butanamido)methanesulfonic acid]
100 to 999 | 100 to 999 | Cc1ccsc1-c1cc(N2CCC[C@H]2C(=O)NCCc2ccc(C#N)cc2)nc(C(F)(F)F)n1 [Compound 172, (S)-N-(4-cyanophenethyl)-1-(6-(3-methylthiophen-2-yl)-2-(trifluoromethyl)pyrimidin-4-yl)pyrrolidine-2-carboxamide]
< 100 | < 100 | CCOC(=O)CCN/C(=N\C#N)NCCC1CCN(c2cc(N3CC[C@H]3C(=O)NCCc3ccc(C#N)cc3)nc(C(F)(F)F)n2)CC1 [Compound 350, (S,Z)-ethyl 3-(2-cyano-3-(2-(1-(6-(2-((4-cyanophenethyl)carbamoyl)azetidin-1-yl)-2-(trifluoromethyl)pyrimidin-4-yl)piperidin-4-yl)ethyl)guanidino)propanoate]
1000 to 30000 | 1000 to 30000 | N#Cc1ccc(CCNC(=O)[C@@H]2CCCN2c2cc(NCCS(=O)(=O)O)nc(C(F)(F)F)n2)cc1 [Compound 12]
1000 to 30000 | 1000 to 30000 | CN(C)[C@@H]1C[C@@H](C(=O)NCCc2ccc(C(F)(F)F)cc2)N(c2cc(N3CCC(CCNC(=O)NCCC(=O)O)CC3)nc(C(F)(F)F)n2)C1 [Compound 352, 3-(3-(2-(1-(6-((2S,4R)-4-(dimethylamino)-2-((4-(trifluoromethyl)phenethyl)carbamoyl)pyrrolidin-1-yl)-2-(trifluoromethyl)pyrimidin-4-yl)piperidin-4-yl)ethyl)ureido)propanoic acid]
100 to 999 | < 100 | N#Cc1ccc(CCNC(=O)[C@@H]2CCCN(c3cc(N4CCN(CCn5ccnc5)CC4)nc(C(F)(F)F)n3)C2)cc1 [Compound 318, (R)-1-(6-(4-(2-(1H-imidazol-1-yl)ethyl)piperazin-1-y1)-2-(trifluoromethyl)pyrimidin-4-yl)-N-(4-cyanophenethyl)piperidine-3-carboxamide]
100 to 999 | < 100 | CN(CC#CCOC1CCN(c2cc(N3CCC[C@H]3C(=O)NCCc3ccc(C#N)cc3)nc(C(F)(F)F)n2)CC1)CCS(=O)(=O)O [Compound 135, (S)-2-((4-((1-(6-(2-((4-cyanophenethyl)carbamoyl)pyrrolidin-1-yl)-2-(trifluoromethyl)pyrimidin-4-yl)piperidin-4-yl)oxy)but-2-yn-1-yl)(methyl)amino)ethanesulfonic acid]
< 100 | < 100 | N#Cc1ccc(CCNC(=O)[C@@H]2CCN2c2cc(N3CCC(CCN)CC3)nc(C(F)(F)F)n2)cc1 [Compound 246, (S)-1-(6-(4-(2-aminoethyl)piperidin-1-yl)-2-(trifluoromethyl)pyrimidin-4-yl)-N-(4-cyanophenethyl)azetidine-2-carboxamide]
100 to 999 | < 100 | N#Cc1ccc(CCNC(=O)[C@@H]2CCCN2c2cc(N3CCC(CCCC(=O)NCCNC(=O)c4cc(NC[C@H](O)[C@@H](O)[C@H](O)[C@H](O)CO)ncn4)CC3)nc(C(F)(F)F)n2)cc1 [Compound 100, N-(2-(4-(1-(6-((S)-2-((4-cyanophenethyl)carbamoyl)pyrrolidin-1-yl)-2-(trifluoromethyl)pyrimidin-4-yl)piperidin-4-yl)butanamido)ethyl)-6-(((2S,3R,4R,5R)-2,3,4,5,6-pentahydroxyhexyl)amino)-pyrimidine-4-carboxamide]
100 to 999 | < 100 | O=C(CCCC1CCN(c2cc(N3CCC[C@@H](C(=O)NCCc4ccc(C(F)(F)F)cc4)C3)nc(C(F)(F)F)n2)CC1)NCCS(=O)(=O)O [Compound 336, (R)-2-(4-(1-(2-(trifluoromethyl)-6-(3-((4-(trifluoromethyl)phenethyl)carbamoyl)-piperidin-1-yl)pyrimidin-4-yl)piperidin-4-yl)butanamido)ethanesulfonic acid]
1000 to 30000 | 100 to 999 | CC(C)(C)OC(=O)N[C@@H](CO)C(=O)N1CCN(c2cc(N3CCC[C@@H](C(=O)NCCc4ccc(C(F)(F)F)cc4)C3)nc(C(F)(F)F)n2)CC1 [Compound 341, tert-butyl ((S)-3-hydroxy-t-oxo-1-(4-(2-(trifluoromethyl)-6-((R)-3-((4-(trifluoromethyl)phenethyl)carbamoyl)piperidin-1-yl)pyrimidin-4-yl)piperazin-1-yl)propan-2-yl)carbamate]
< 100 | < 100 | N=C(N)NCCCC1CCN(c2cc(N3CCC[C@H]3C(=O)NCCc3ccc(C(F)(F)F)cc3)nc(C(F)(F)F)n2)CC1 [Compound 132, (S)-1-(6-(4-(3-guanidinopropyl)piperidin-1-yl)-2-(trifluoromethyl)pyrimidin-4-yl)-N-(4-(trifluoromethyl)phenethyl)-pyrrolidine-2-carboxamide]
100 to 999 | < 100 | N#Cc1ccc(CCNC(=O)[C@@H]2CCCN2c2cc(-c3ccc(CNC(=O)NCS(=O)(=O)O)cc3)nc(C(F)(F)F)n2)cc1 [Compound 192, (S)-(3-(4-(6-(2-((4-cyanophenethyl)carbamoyl)pyrrolidin-1-yl)-2-(trifluoromethyl)pyrimidin-4-yl)benzyl)ureido)methanesulfonic acid]
100 to 999 | < 100 | O=C(O)CCNC(=O)NCCC1CCN(c2cc(N3CCC[C@H]3C(=O)NCCc3ccc(-c4ccncc4)cc3)nc(C(F)(F)F)n2)CC1 [Compound 376, (S)-3-(3-(2-(1-(6-(2-((4-(pyridin-4-yl)phenethyl)carbamoyl)pyrrolidin-1-yl)-2-(trifluoromethyl)pyrimidin-4-yl)piperidin-4-yl)ethyl)ureido)propanoic acid]
< 100 | < 100 | N#Cc1ccc(CCNC(=O)[C@@H]2CCCN2c2cc(N3CCC(CCCC(=O)N[C@@H](CCCNC(=N)N)C(=O)O)CC3)cc(C(F)(F)F)n2)cc1 [Compound 200, (S)-2-(4-(1-(2-((S)-2-((4-cyanophenethyl)carbamoyl)pyrrolidin-1-yl)-6-(trifluoromethyl)pyridin-4-yl)piperidin-4-yl)butanamido)-5-guanidinopentanoic acid]
< 100 | < 100 | O=C(O)CCCC1CCN(c2cc(N3CC[C@H]3C(=O)NCCc3ccc(C(F)(F)F)cc3)nc(C(F)(F)F)n2)CC1 [Compound 233, (S)-4-(1-(2-(trifluoromethyl)-6-(2-((4-(trifluoromethyl)phenethyl)carbamoyl)azetidin-1-yl)pyrimidin-4-yl)piperidin-4-yl)butanoic acid]
100 to 999 | < 100 | N#Cc1ccc(CCNC(=O)[C@@H]2CCCN2c2cc(-c3ccc(COCC(=O)O)cc3)cc(C(F)(F)F)n2)cc1 [Compound 208, (S)-2-((4-(2-(2-((4-cyanophenethyl)carbamoyl)pyrrolidin-1-yl)-6-(trifluoromethyl)pyridin-4-yl)benzyl)oxy)acetic acid]
100 to 999 | < 100 | O=C(NCCc1ccc(C(F)(F)F)cc1)[C@@H]1CCN1c1cc(N2CCC(CCCC3CCN(C(=O)CS(=O)(=O)O)CC3)CC2)nc(C(F)(F)F)n1 [Compound 280, (S)-2-oxo-2-(4-(3-(1-(2-(trifluoromethyl)-6-(2-((4-(trifluoromethyl)phenethyl)carbamoyl)azetidin-1-yl)pyrimidin-4-yl)piperidin-4-yl)propyl)piperidin-1-yl)ethanesulfonic acid]
< 100 | < 100 | N#Cc1ccc(CCNC(=O)[C@@H]2CCCN2c2cc(-c3ccc(CCC(=O)NCCS(=O)(=O)O)cc3)nc(C(F)(F)F)n2)cc1 [Compound 189, (S)-2-(3-(4-(6-(2-((4-cyanophenethyl)carbamoyl)pyrrolidin-1-yl)-2-(trifluoromethyl)pyrimidin-4-yl)phenyl)propanamido)ethanesulfonic acid]
